Measurements taken from patent publication US9580463B2 (BRISTOL-MYERS SQUIBB COMPANY, priority 2013, dated 2017).
Where two headings read alike, the source gives them in different places.

Assays:
[1] = tested on: HCV genotype 1a (H77 strain) replicon in HUH-7 cells; test: HCV replicon luciferase reporter assay, genotype 1a; type: cell-based; settings: Hepatitis C virus, 72 h, genotype 1a replicon, 3 days incubation
From the text: An HCV replicon whole cell system was established as described by Lohmann V, Korner F, Koch J, Herian U, Theilmann L, Bartenschlager R., Science 285(5424):110-3 (1999) and modified to introduce a luciferase reporter, as first described by Krieger et al (Krieger N, Lohmann V, and Bartenschlager R, J. Virol. 75(10):4614-4624 (2001)). CDNA encoding a humanized form of the Renilla luciferase gene and a linker sequence fused directly to the 3′-end of the luciferase gene were introduced into the replicon construct using an Asc1 restriction site located in core, directly upstream of the neomycin marker gene. The adaptive mutation at position 1179 (serine to isoleucine) was also introduced (Blight K J, Kolykhalov, A A, Rice, C M, Science 290(5498):1972-1974). A stable cell line constitutively expressing this HCV replicon construct was generated by first linearizing plasmid DNAs with ScaI. RNA transcripts were synthesized in vitro using the T7 MegaScript transcription kit (Ambion, Austin, Tex.) according to manufacturer's directions. In vitro transcripts of the cDNA were transfected into the human hepatoma cell line, HUH-7. […] Resulting cell lines were characterized for positive and negative strand RNA production and protein production over time.
A stable HCV replicon luciferase reporter cell line representing the genotype 1a H77 strain (Yanagi M, Purcell R H, Emerson S U, et al. Transcripts from a single full-length cDNA clone of hepatitis C virus are infectious when directly transfected into the liver of a chimpanzee. Proc Natl Acad Sci USA 1997; 94(16):8738-8743) was generated as described previously for the genotype 1b (Con1) replicon luciferase cell line. The replicon construct was modified by introducing mutations were introduced into the genes encoding the NS3 helicase domain (proline replaced by leucine at position 1496) and NS5A (serine to isoleucine at position 2204) to improve replication in cell culture.
HCV replicon luciferase assays were developed to monitor the inhibitory effects of compounds described in the disclosure on HCV genotypes 1a and 1b viral replication. HUH-7 cells, constitutively expressing the HCV replicon, were grown in Dulbecco's Modified Eagle Media (DMEM) (Gibco-BRL) containing 10% Fetal calf serum (FCS) (Sigma) and 1 mg/mL G418 (Gibco-BRL). Compounds were serially diluted 3 folds in DMSO for a twenty-point titration and subsequently transferred to sterile 384-well tissue-culture treated plates (Corning cat #3571). The plates were then seeded with 50 μL of cells at a density of 3.0×10^3 cells/well in DMEM containing 4% FCS (final DMSO concentration at 0.5%). After 3 days incubation at 37° C., cells were analyzed for Renilla Luciferase activity using the EnduRen as substrate (Promega cat #E6485). The EnduRen substrate was diluted in DMEM and then added to the plates to a final concentration of 7.5 μM. The plates were incubated for 2 hrs at 37° C. and then read immediately for 30 seconds with Viewlux Imager (PerkinElmer) using a luminescence program. To assess cytotoxicity of compounds, CC50 values were generated by multiplexing the EnduRen-containing plates with Cell Titer-Blue (Promega, cat # G8082). Cell-Titer Blue (3 μL) was added to each well and incubated for 8 hrs at 37° C. The fluorescence signal from each well was read, with an excitation wavelength at 525/10 nm and an emission wavelength of 598/10 nm, using the Viewlux Imager.
The EC50 values for compounds were calculated by using a four-parameter logistic equation: y=A+((B−A)/(1+((C/x)^D))), where A and B denotes minimal and maximal % inhibition, respectively, C is the EC50, D is the hill slope and x represents compound concentration.

[2] = tested on: HCV genotype 1b (Con1) replicon in HUH-7 cells; test: HCV replicon luciferase reporter assay, genotype 1b; type: cell-based; settings: Hepatitis C virus, 72 h, genotype 1b replicon, 3 days incubation
How it was run: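 Twenty-point, threefold compound titrations (0.5% DMSO) were incubated 3 days at 37 °C with 3.0×10^3 HUH-7 cells/well in 4% FCS. The cells stably carried luciferase replicons: genotype 1b Con1 (S1179I) or 1a H77 (NS3 P1496L, NS5A S2204I). Renilla signal was read after 2 h with 7.5 μM EnduRen, and EC50 was taken from a four-parameter logistic fit. Cytotoxicity (CC50) was measured by Cell Titer-Blue, 8 h.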

For `COC[C@@H]1C[C@@H](C)CC/C=C\[C@@H]2C[C@@]2(C(=O)NS(=O)(=O)C2(C)CC2)NC(=O)[C@@H]2C[C@@H](Oc3nc4cc(OC)ccc4nc3C(F)(F)F)CN2C(=O)[C@H]1NC(=O)OC(C)(C)C(F)(F)F` [Compound 1031, 1,1,1-trifluoro-2-methylpropan-2-yl ((2R,6S,7R,9S,13aS,14aR,16aS,Z)-2-((7-methoxy-3-(trifluoromethyl)quinoxalin-2-yl)oxy)-7-(methoxymethyl)-9-methyl-14a-(((1-methylcyclopropyl)sulfonyl)carbamoyl)-5,16-dioxo-1,2,3,5,6,7,8,9,10,11,13a,14,14a,15,16,16a-hexadecahydrocyclopropa[e]pyrrolo[1,2-a][1,4]diazacyclopentadecin-6-yl)carbamate], the EC50 ([1]; read-out: LE_1a (EC50, range)) was 5.01 to 35 nM and the EC50 ([2]; read-out: LE_1b (EC50, range)) was 1.01 to 5 nM.
For `COC[C@@H]1C[C@@H](C)CC/C=C\[C@@H]2C[C@@]2(C(=O)NS(=O)(=O)C2(C)CC2)NC(=O)[C@@H]2C[C@@H](Oc3ncc(OC)c4ccccc34)CN2C(=O)[C@H]1NC(=O)OC(C)(C)C(F)(F)F` [Compound 1017, 1,1,1-trifluoro-2-methylpropan-2-yl ((2R,6S,7R,9S,13aS,14aR,16aS,Z)-2-((4-methoxyisoquinolin-1-yl)oxy)-7-(methoxymethyl)-9-methyl-14a-(((1-methylcyclopropyl)sulfonyl)carbamoyl)-5,16-dioxo-1,2,3,5,6,7,8,9,10,11,13a,14,14a,15,16,16a-hexadecahydrocyclopropa[e]pyrrolo[1,2-a][1,4]diazacyclopentadecin-6-yl)carbamate], the EC50 ([1]; read-out: LE_1a (EC50, range)) was 1.01 to 5 nM and the EC50 ([2]; read-out: LE_1b (EC50, range)) was 0.51 to 1 nM.
`COC[C@@H]1C[C@H](C)CC/C=C\[C@@H]2C[C@@]2(C(=O)NS(=O)(=O)C2(C)CC2)NC(=O)[C@@H]2C[C@@H](Oc3nc4cc(OC)ccc4nc3C(F)(F)F)CN2C(=O)[C@H]1NC(=O)OC(C)(C)C(F)(F)F` [Compound 1032, 1,1,1-trifluoro-2-methylpropan-2-yl ((2R,6S,7R,9R,13aS,14aR,16aS,Z)-2-((7-methoxy-3-(trifluoromethyl)quinoxalin-2-yl)oxy)-7-(methoxymethyl)-9-methyl-14a-(((1-methylcyclopropyl)sulfonyl)carbamoyl)-5,16-dioxo-1,2,3,5,6,7,8,9,10,11,13a,14,14a,15,16,16a-hexadecahydrocyclopropa[e]pyrrolo[1,2-a][1,4]diazacyclopentadecin-6-yl)carbamate] was tested, and the EC50 ([1]; read-out: LE_1a (EC50, range)) was 0.51 to 1 nM and the EC50 ([2]; read-out: LE_1b (EC50, range)) was 0.1 to 0.5 nM.
`COC[C@@H]1C[C@H](C)CC/C=C\[C@@H]2C[C@@]2(C(=O)NS(=O)(=O)C2(C)CC2)NC(=O)[C@@H]2C[C@@H](Oc3nccc4cc(OC)ccc34)CN2C(=O)[C@H]1NC(=O)OC(C)(C)C(F)(F)F` [Compound 1014, 1,1,1-trifluoro-2-methylpropan-2-yl ((2R,6S,7R,9R,13aS,14aR,16aS,Z)-2-((6-methoxyisoquinolin-1-yl)oxy)-7-(methoxymethyl)-9-methyl-14a-(((1-methylcyclopropyl)sulfonyl)carbamoyl)-5,16-dioxo-1,2,3,5,6,7,8,9,10,11,13a,14,14a,15,16,16a-hexadecahydrocyclopropa[e]pyrrolo[1,2-a][1,4]diazacyclopentadecin-6-yl)carbamate] showed an EC50 ([1]; read-out: LE_1a (EC50, range)) of 1.01 to 5 nM and an EC50 ([2]; read-out: LE_1b (EC50, range)) of 0.51 to 1 nM.
Molecule `COC[C@@H]1C[C@@H](C)CC/C=C\[C@@H]2C[C@@]2(C(=O)NS(=O)(=O)C2CC2)NC(=O)[C@@H]2C[C@@H](Oc3nccc4cc(OC)ccc34)CN2C(=O)[C@H]1NC(=O)OC(C)(C)C(F)(F)F` [Compound 1018, 1,1,1-trifluoro-2-methylpropan-2-yl ((2R,6S,7R,9S,13aS,14aR,16aS,Z)-14a-((cyclopropylsulfonyl)carbamoyl)-2-((6-methoxyisoquinolin-1-yl)oxy)-7-(methoxymethyl)-9-methyl-5,16-dioxo-1,2,3,5,6,7,8,9,10,11,13a,14,14a,15,16,16a-hexadecahydrocyclopropa[e]pyrrolo[1,2-a][1,4]diazacyclopentadecin-6-yl)carbamate] has an EC50 ([1]; read-out: LE_1a (EC50, range)) of 1.01 to 5 nM and an EC50 ([2]; read-out: LE_1b (EC50, range)) of 1.01 to 5 nM.
In the case of `COC[C@@H]1C[C@@H](C)CC/C=C\[C@@H]2C[C@@]2(C(=O)NS(=O)(=O)C2(C)CC2)NC(=O)[C@@H]2C[C@@H](Oc3nc4cc(OC)ccc4nc3C(C)C)CN2C(=O)[C@H]1NC(=O)OC(C)(C)C(F)(F)F` [Compound 1033, 1,1,1-trifluoro-2-methylpropan-2-yl ((2R,6S,7R,9S,13aS,14aR,16aS,Z)-2-((3-isopropyl-7-methoxyquinoxalin-2-yl)oxy)-7-(methoxymethyl)-9-methyl-14a-(((1-methylcyclopropyl)sulfonyl)carbamoyl)-5,16-dioxo-1,2,3,5,6,7,8,9,10,11,13a,14,14a,15,16,16a-hexadecahydrocyclopropa[e]pyrrolo[1,2-a][1,4]diazacyclopentadecin-6-yl)carbamate], the EC50 ([1]; read-out: LE_1a (EC50, range)) is reported as 5.01 to 35 nM and the EC50 ([2]; read-out: LE_1b (EC50, range)) is reported as 1.01 to 5 nM.
Work on `COC[C@@H]1C[C@@H](C)CC/C=C\[C@@H]2C[C@@]2(C(=O)NS(=O)(=O)C2(CF)CC2)NC(=O)[C@@H]2C[C@@H](Oc3nc4cc(OC)ccc4nc3C(F)(F)F)CN2C(=O)[C@H]1NC(=O)OC(C)(C)C(F)(F)F` [Compound 1038, 1,1,1-trifluoro-2-methylpropan-2-yl ((2R,6S,7R,9S,13aS,14aR,16aS,Z)-14a-(((1-(fluoromethyl)cyclopropyl)sulfonyl)carbamoyl)-2-((7-methoxy-3-(trifluoromethyl)quinoxalin-2-yl)oxy)-7-(methoxymethyl)-9-methyl-5,16-dioxo-1,2,3,5,6,7,8,9,10,11,13a,14,14a,15,16,16a-hexadecahydrocyclopropa[e]pyrrolo[1,2-a][1,4]diazacyclopentadecin-6-yl)carbamate] yielded an EC50 ([1]; read-out: LE_1a (EC50)) of 35 nM, an EC50 ([1]; read-out: LE_1a (EC50, range)) of 35 to 620 nM and an EC50 ([2]; read-out: LE_1b (EC50)) of 14.7 nM. For the same molecule, the EC50 ([2]; read-out: LE_1b (EC50, range)) was 5.01 to 35 nM.
`COC[C@@H]1CCCC/C=C\[C@@H]2C[C@@]2(C(=O)NS(=O)(=O)C2CC2)NC(=O)[C@@H]2C[C@@H](Oc3nc4cc(OC)ccc4nc3C(F)(F)F)CN2C(=O)[C@H]1NC(=O)OC(C)(C)C` [Compound 1020, tert-butyl ((2R,6S,7R,13aS,14aR,16aS,Z)-14a-((cyclopropylsulfonyl)carbamoyl)-2-((7-methoxy-3-(trifluoromethyl)quinoxalin-2-yl)oxy)-7-(methoxymethyl)-5,16-dioxo-1,2,3,5,6,7,8,9,10,11,13a,14,14a,15,16,16a-hexadecahydrocyclopropa[e]pyrrolo[1,2-a][1,4]diazacyclopentadecin-6-yl)carbamate] gave an EC50 ([1]; read-out: LE_1a (EC50, range)) of 1.01 to 5 nM and an EC50 ([2]; read-out: LE_1b (EC50, range)) of 0.51 to 1 nM.
`COC[C@@H]1C[C@@H](C)CC/C=C\[C@@H]2C[C@@]2(C(=O)NS(=O)(=O)C2(C)CC2)NC(=O)[C@@H]2C[C@@H](Oc3ncc(OC)c4ccccc34)CN2C(=O)[C@H]1NC(=O)OC(C)(C)C` [Compound 1011, tert-butyl ((2R,6S,7R,9S,13aS,14aR,16aS,Z)-2-((4-methoxyisoquinolin-1-yl)oxy)-7-(methoxymethyl)-9-methyl-14a-(((1-methylcyclopropyl)sulfonyl)carbamoyl)-5,16-dioxo-1,2,3,5,6,7,8,9,10,11,13a,14,14a,15,16,16a-hexadecahydrocyclopropa[e]pyrrolo[1,2-a][1,4]diazacyclopentadecin-6-yl)carbamate] gave an EC50 ([1]; read-out: LE_1a (EC50, range)) of 1.01 to 5 nM and an EC50 ([2]; read-out: LE_1b (EC50, range)) of 1.01 to 5 nM.
